Source: patent publication US20040077031A1, “Novel methionine aminopeptidase-2 and uses thereof” (priority 2002, published 2004)
Entries after “also recorded” stand apart in the source; their conditions may differ. Read-outs that look alike come from different tables or passages of the source.

Columns and labels:
[1] = target: T1, MetAP2 (Homo sapiens, UniProt P50579); assay: MetAP2 enzyme inhibition, coupled-enzyme chromogenic assay; type: biochemical
T1 construct: gp67 secretion signal of vector pAcGP67B (N); made in house; host or cells: baculovirus-infected Sf9 insect cells, secreted into medium
T1 sequence (P50579 whole entry): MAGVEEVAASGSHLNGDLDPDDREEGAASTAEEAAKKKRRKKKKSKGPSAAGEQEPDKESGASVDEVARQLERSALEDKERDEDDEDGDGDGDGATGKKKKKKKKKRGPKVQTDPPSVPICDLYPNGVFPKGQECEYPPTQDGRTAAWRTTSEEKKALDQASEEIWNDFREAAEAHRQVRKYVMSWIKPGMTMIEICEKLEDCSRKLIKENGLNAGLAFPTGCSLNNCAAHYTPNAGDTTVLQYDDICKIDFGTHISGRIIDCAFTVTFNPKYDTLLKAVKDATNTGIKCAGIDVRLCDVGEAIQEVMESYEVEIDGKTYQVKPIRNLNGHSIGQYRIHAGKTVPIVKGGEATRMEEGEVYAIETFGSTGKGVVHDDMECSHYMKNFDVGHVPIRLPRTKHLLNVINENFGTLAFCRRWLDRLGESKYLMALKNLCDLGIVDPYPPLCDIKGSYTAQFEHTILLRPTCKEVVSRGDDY
Source text: (§1) A coupled-enzyme chromogenic assay was used to measure methionine aminopeptidase activity by monitoring the production of free methionine cleaved from specific peptide substrates containing methionine. […] Other peptides can be used including dimeric, tetrameric, pentameric, hexameric, heptameric, nonameric, decameric, and undecameric peptides. […] Free methionine was oxidized with L-amino acid oxidase (AAO, Sigma Catalog No. A-9378) and horseradish peroxidase (HRP, Sigma Catalog No. P-8451). Oxidation by AAO of free methionine generates hydrogen peroxide (H2O2) which then reacts with HRP oxidizing 0-dianisidine (Sigma Catalog No. D-1954) or 10-acetyl-3,7-dihydrophenoxazine (Amplex Red, Molecular Probes). Assays were performed in 96-well microtiter plates. Enzyme preparations were diluted in assay buffer (50 mM HEPES, pH 7.4, 100 mM NaCl), and 10 μl of the enzymes were introduced into each well. A mixture (90 μl) of 0.1 mg/ml L-amino acid oxidase, 0.1 mg/ml of horseradish peroxidase, 0.1 mg/ml ortho-dianisidine, and 0.5 mM peptide substrate was added to each cell. The reactions were carried out at room temperature, and the absorbance at 450 nanometer (A450) was measured every 20 seconds over a period of twenty minutes using an automatic plate reader (Molecular Devices, Calif., USA). The rate in mOD/min, calculated for each well, was used to represent MetAP1 or MetAP2 activity. Under this assay condition, the methionine cleaved from peptide substrate by MetAP1 or MetAP2 was instantaneously oxidized to generate a final A450 readout.
(§2) The cellular activity of A-357300 was tested in HMVEC grown in complete EGM2 medium enriched with a combination of growth factors (vascular endothelial growth factor (VEGF), basic fibroblast growth factor (bFGF), epidermal growth factor (EGF), and insulin-like growth factor (IGF)) and fetal bovine serum. […] To determine that the cellular effect of A-357300 was through inhibition of cellular MetAp2, HMVEC were incubated with the MetAP2 inhibitors fumagillin and A-357300 for 4 hours before ^35S-methionine was added to the culture. After another 2-hour incubation, cellular proteins were collected and applied to a reactive dye-agarose column as described in Example 6. MetAP2 specific substrates (GAPDH and other cellular proteins with a N-terminal cleavable initiator methionine) were captured on the agarose column.

[2] = system: HMVEC; assay: 3-day HMVEC proliferation assay; type: cell-based, human
Protocol: as §2

[3] = target: T2, cellular MetAP2 (Homo sapiens, UniProt P50579); assay: Cellular MetAP2 activity (unprocessed initiator methionine of cellular proteins) in HMVEC; type: cell-based; conditions: for inhibition of cellular MetAP2 activity / initiator methionine processing: HMVEC
T2 construct: host or cells: HMVEC
T2 sequence (P50579 whole entry): as above
Protocol: Human microvascular endothelial cells (HMVEC) (Clonetics, San Diego, Calif.) were grown in EGM2 recommended medium (Wang et al., J. Cell. Biochem. 77: 465-473, 2000). Cells in T75 flasks at approximately 70% confluence were changed to 15 ml EGLM (labeling medium, Clonetics) without added methionine. Fumagillin (Sigma Catalog No. F-6771) or A310840 (Abbott Laboratories, Abbott Park, Ill.) was added to the culture to final concentrations of 1 nM (fumagillin) or 0.5, 2 and 5 μM (A310840). The cells and inhibitors were incubated for four hours before adding 0.5 mCi/flask of ^35S-methionine (Amersham, Piscataway, N.J.). The cells were allowed further incubation for two hours, washed and lysed in 1 ml M-per (Pierce, Rockford, Ill.) buffer. The lysate samples having the same amount of radioactivity were loaded to a 0.5 ml column of Reactive Blue 72-agarose (Sigma, St. Louis, Mo.) equilibrated with 20 mM Tris/HCl, pH 7.5, 150 mM NaCl. The columns were washed with 30 ml equilibrium buffer, and then incubated with 3 ml of 100 nM MetAP2 in equilibration/washing buffer for 20 minutes at room temperature. The MetAP2 cleaved radioactivity (unprocessed initiator methionine) was then counted.
as §2

[4] = system: HMVEC cells; assay: Penetration and accumulation into HMVEC cells; type: in vitro ADME, human
[5] = target: T3, MetAP1 (Homo sapiens, UniProt P53582); assay: Metal dependence and baseline activity of MetAP1, chromogenic assay; type: biochemical
T3 construct: histidine tag (N); gp67 secretion signal of vector pAcGP67B (N); made in house; host or cells: baculovirus-infected Sf9 insect cells, secreted into medium
Source text: as §1
Both MetAP1 and MetAP2 need the presence of a metal in the active site for optimal activity, and have previously been classified as Co^2+, metalloproteases (Arfin et al, 1995; Li and Chang, 1996). […] Calcium chloride (Ca^2+), cobalt chloride (Co^2+), cupric chloride (Cu^2+), ferrous chloride (Fe^2+), magnesium chloride (Mg^2+), manganese chloride (Mn^2+), nickel chloride (Ni^2+), or zinc chloride (Zn^2+) was included in each assay at final concentrations of 0, 0.1, 1, 10, 100, 1000, and 10,000 μM in the assay buffer (50 mM HEPES, pH 7.4, 100 mM NaCl).

[6] = target: T1, MetAP2; assay: Metal dependence and baseline activity of MetAP2, chromogenic assay; type: biochemical
Source text: as §1
Both MetAP1 and MetAP2 need the presence of a metal in the active site for optimal activity, and have previously been classified as Co^2+, metalloproteases (Arfin et al, 1995; Li and Chang, 1996). […]

[7] = target: T3, MetAP1; assay: Metal dependence of MetAP1 in the presence of glutathione, radioactive methionine assay; type: biochemical; conditions: 5 mM glutathione
Protocol: Fmoc-L-Lys(biotinyl) —OH was purchased from Bachem (King of Prussia, Pa.). Fmoc-L-[methyl-^3H]Methionine was synthesized by reacting Fmoc-Cl with L-[methyl-^3H]Methionine (Amersham, Piscataway, N.J.) in a 1:1 Dioxane/10% Na2CO3(aq) mixed solvent. The peptides were deprotected and cleaved from the resin using a trifluoroacetic acid solution containing water, thioanisole, and ethanedithiol (900 μl:25 μl:50 μl:25 μl) as scavengers. The peptides were purified by HPLC using a Waters C18 Symmetry column (7.8×300 mm, 7 μm; Milford, Mass.). […] The resulting amount of cleaved radioactive methionine is directly proportional to the catalytic activity of the MetAP. […] (See U.S. Pat. No. 6,156,495 for a discussion of labels and uses thereof). Conversely, anything impairing the catalytic activity of MetAP (e.g., inhibitory agents, wrong metal cofactor) will result in a decreased amount of free radioactive methionine.
To study the effect of metal ions in the presence of physiologically relevant reduced glutathione (GSH) (Walker and Bradshaw, 1998), the assay measuring radioactive methionine release from a peptide described in Example 3.2 was used because GSH affected the coupled enzyme chromogenic assay.

[8] = system: HMVEC/HUVEC; assay: Cell proliferation inhibition; type: cell-based; conditions: Homo sapiens, read-out: IC50s of proliferation inhibition
Protocol: as §2

[9] = system: A549; assay: Cell proliferation inhibition; type: cell-based; conditions: Homo sapiens, Tumor cells, read-out: IC50s of proliferation inhibition
Source text: (§3) Table 2 summarizes the selectivity of MetAP2 inhibitors in inhibiting the proliferation of endothelial cells and certain tumor cells. Proliferation of endothelial cells of various origins, normal human primary cells pf non-EC type, and tumor cell lines were studied with MetAP2 inhibitors A-357300 and fumagillin. […] Most tumor cells were […] while some were resistant.

[10] = system: Astrocytes; assay: Cell proliferation inhibition; type: cell-based; conditions: Astrocyte, Normal human primary cells, read-out: IC50s of proliferation inhibition
Source text: as §3

[11] = system: BAEC (bovine); assay: Cell proliferation inhibition; type: cell-based; conditions: Bos taurus, EC, read-out: IC50s of proliferation inhibition
Source text: as §3

[12] = system: BEND3 (mouse); assay: Cell proliferation inhibition; type: cell-based; conditions: EC, read-out: IC50s of proliferation inhibition
Source text: as §3

[13] = system: CHP-134; assay: Cell proliferation inhibition; type: cell-based; conditions: Homo sapiens, Tumor cells, read-out: IC50s of proliferation inhibition
Source text: as §3

[14] = system: DLD-1; assay: Cell proliferation inhibition; type: cell-based; conditions: Homo sapiens, Tumor cells, read-out: IC50s of proliferation inhibition
Source text: as §3

[15] = system: Fibroblasts; assay: Cell proliferation inhibition; type: cell-based; conditions: Fibroblast, Normal human primary cells, read-out: IC50s of proliferation inhibition
Source text: as §3

[16] = system: HCT-15; assay: Cell proliferation inhibition; type: cell-based; conditions: Homo sapiens, Tumor cells, read-out: IC50s of proliferation inhibition
Source text: as §3

[17] = system: HT-1080; assay: Cell proliferation inhibition; type: cell-based; conditions: Homo sapiens, Tumor cells, read-out: IC50s of proliferation inhibition
Source text: as §3

[18] = system: Human CEC; assay: Cell proliferation inhibition; type: cell-based; conditions: EC, read-out: IC50s of proliferation inhibition
Source text: as §3

[19] = system: MCF7; assay: Cell proliferation inhibition; type: cell-based; conditions: Homo sapiens, Tumor cells, read-out: IC50s of proliferation inhibition
Source text: as §3

[20] = system: MDA-435-LM; assay: Cell proliferation inhibition; type: cell-based; conditions: Homo sapiens, Tumor cells, read-out: IC50s of proliferation inhibition
Source text: as §3

[21] = system: MDA-MB; assay: Cell proliferation inhibition; type: cell-based; conditions: Tumor cells, read-out: IC50s of proliferation inhibition
Source text: as §3

[22] = system: Mammary Epithelial cells; assay: Cell proliferation inhibition; type: cell-based; conditions: Normal human primary cells, read-out: IC50s of proliferation inhibition
Source text: as §3

[23] = system: MiaPaCa2; assay: Cell proliferation inhibition; type: cell-based; conditions: Homo sapiens, MIA PaCa-2, Tumor cells, read-out: IC50s of proliferation inhibition
Source text: as §3

[24] = system: NCI-H460; assay: Cell proliferation inhibition; type: cell-based; conditions: Homo sapiens, Tumor cells, read-out: IC50s of proliferation inhibition
Source text: as §3

[25] = system: PC3; assay: Cell proliferation inhibition; type: cell-based; conditions: Homo sapiens, PC-3, Tumor cells, read-out: IC50s of proliferation inhibition
Source text: as §3

[26] = system: Prostate Epithelial cells; assay: Cell proliferation inhibition; type: cell-based; conditions: Normal human primary cells, read-out: IC50s of proliferation inhibition
Source text: as §3

[27] = system: T-lymphocytes; assay: Cell proliferation inhibition; type: cell-based; conditions: T-lymphocyte, Normal human primary cells, read-out: IC50s of proliferation inhibition
Source text: as §3

[28] = target: T1, MetAP2; assay: Kinetic constants of MetAP2 with Mn2+ on peptide substrates (chromogenic assay); type: biochemical; conditions: MetAP2 with 100 μM Mn2+
Source text: as §1, with “A mixture (90 μl) of 0.1 mg/ml L-amino acid oxidase, 0.1 mg/ml of horseradish peroxidase, 0.1 mg/ml ortho-dianisidine, and 0.5 mM peptide substrate was added to each cell.” left out

## c1ccc2cc(CSc3nnc[nH]3)ccc2c1 [A310840, 3-((2-naphthylmethyl)sulfanyl)-4H-1,2,4-triazole]
[1]; Mn2+ as metal cofactor
  inhibition of MetAP2-Mn2+: did not inhibit
[1]; Mn2+ form versus baseline, Co2+ and other metal forms
  fold less active as inhibitor of MetAP2 with Mn2+: 1000 fold
[1]; other metal ions including Zn2+, Fe2+, and Ni2+, read-out: IC50 on MetAP2 with many other metal ions
  IC50: 10 to 117 nM
[1]; without added metals, read-out: IC50 on the baseline activity of MetAP2
  IC50: 60 nM
[2]
  inhibition of HMVEC cell proliferation: did not inhibit
[3]
  inhibition of cellular MetAP2 activity / initiator methionine processing: did not inhibit
[3]; treatment up to 10 μM
  processing of protein initiator methionine in HMVEC: not blocked
[4]
  penetration and accumulation into HMVEC cells: able to penetrate and accumulate

## [Cl][Co][Cl] [Co^2+, cobalt chloride]
[5]; MAS substrate
  stimulation of MetAP1 activity: about 2 fold
[5]; MGAQFSKT substrate
  stimulation of MetAP1 activity: 5 fold
[6]
  metal concentration of maximum effect on MetAP2: 10 µM
[7]
  effect on MetAP1 activity: stimulatory

## [Cl][Fe][Cl] [Fe^2+, ferrous chloride]
[7]
  effect on MetAP1 activity: stimulatory

## CO[C@@H]1[C@H](OC(=O)/C=C/C=C/C=C/C=C/C(=O)O)CC[C@]2(CO2)[C@H]1[C@@]1(C)O[C@@H]1CC=C(C)C [Fumagillin, fumagillin]
[1]; all metal ions
  inhibition of MetAP2 with all metal ions: inhibited MetAP2 with all metal ions
[2]; 1 nM
  inhibition of HMVEC cell proliferation: inhibition of cell proliferation
[3]; 1 nM
  unprocessed N-terminal initiator methionine of cellular proteins in HMVEC: increased; also recorded: accumulation of unprocessed N-terminal methionine
[3]
  inhibition of cellular MetAP2 activity / initiator methionine processing: inhibition; also recorded: able to block
[8]
  IC50: 1 nM
[9]
  IC50: 2 nM
[10]
  IC50: > 1000 nM
[11]
  IC50: 1 nM
[12]
  IC50: 2 nM
[13]
  IC50: 1 nM
[14]
  IC50: 2 nM
[15]
  IC50: > 1000 nM
[16]
  IC50: 3 nM
[17]
  IC50: 1 nM
[18]
  IC50: 1 nM
[19]
  IC50: > 1000 nM
[20]
  IC50: > 1000 nM
[21]
  IC50: > 1000 nM
[22]
  IC50: > 1000 nM
[23]
  IC50: > 1000 nM
[24]
  IC50: 3 nM
[25]
  IC50: > 1000 nM
[26]
  IC50: > 1000 nM
[27]
  IC50: 8300 nM

## [Cl-].[Cl-].[Zn+2] [Zn^2+, zinc chloride]
[7]
  effect on MetAP1 activity: showed the best activity

## MGKVKVG
[28]
  Km: 215 µM
  kcat: 9.563 s⁻¹

## manganese chloride [Mn^2+]
[5]; MAS substrate
  stimulation of MetAP1 activity: about 2 fold
[5]; MGAQFSKT substrate
  stimulation of MetAP1 activity: 3 fold
[6]
  metal concentration of maximum effect on MetAP2: 1 µM
[6]; in the presence and absence of physiological concentrations of GSH
  concentration that fully stimulated human MetAP2 activity: 1 µM
